Earlier results, collected in patent publication US20180344745A1, “TREATMENT OF DEVELOPMENTAL DISORDERS WITH IMIDAZOLONE DERIVATIVES” (Ovid Therapeutics Inc., priority 2017, published 2018).

Conditions: smokers versus non-smokers

SMILES: O=C1N=C(N2CCOCC2)CN1c1ccc(Cl)cc1 [imepitoin, 1-(4-chlorophenyl)-4-morpholino-imidazolin-2-one]
- elimination: more rapidly eliminated in smokers than in non-smokers
